Experimental data taken from patent US10961200B2, “Small molecule inhibitors of lactate dehydrogenase and methods of use thereof” (THE UNITED STATES OF AMERICA, AS REPRESENTED BY THE …, priority 2014, dated 2021).

How the values were obtained:
MiaPaCa2 cells = assay: cell-based HT lactate assay, colorimetric/fluorometric detection (inhibition of lactate production); conditions: class symbols, 0 to 3 pluses
Human LDHA = Human LDHA (Homo sapiens (Human), UniProt P00338); assay: human LDHA primary biochemical assay (resazurin/diaphorase coupled, fluorescence); conditions: LDHA inhibitory activity, activity level based on IC50 (Table 7)
Excerpt: Test compounds were placed in a Greiner Bio-One (Monroe, N.C.) 1536-well black solid bottom assay plate. 200 millimolar (mM) Tris HCl, pH 7.4, 100 micromolar […] EDTA and 0.01% TWEEN-20™, final concentration, was used as the assay buffer. The LDHA reagent was 2 nanomolar (nM) Human LDHA (Meridian Life Science, Inc., Memphis, Tenn.), final concentration, in assay buffer.

SMILES: NS(=O)(=O)c1ccc(Cc2c(-c3cccc(N4CCC(F)(F)C4)c3)nn(-c3nc(C(=O)O)cs3)c2CC2CC2)cc1F [Compound 395]
- IC50 (MiaPaCa2 cells): 10000 to 57000 nM
- IC50 (Human LDHA): 1000 to 57000 nM

SMILES: NS(=O)(=O)c1ccc(Cc2c(-c3cccc(N4CCCC(C(F)(F)F)C4)c3)nn(-c3nc(C(=O)O)cs3)c2CC2CC2)cc1F (stereo not drawn) [Compound 396]
- IC50 (MiaPaCa2 cells): 1000 to 10000 nM
- IC50 (Human LDHA): < 100 nM

SMILES: NS(=O)(=O)c1ccc(Cc2c(-c3cccc(N4CCCC(F)(F)C4)c3)nn(-c3nc(C(=O)O)cs3)c2CC2CC2)cc1F [Compound 397]
- IC50 (MiaPaCa2 cells): 1000 to 10000 nM
- IC50 (Human LDHA): < 100 nM

SMILES: NS(=O)(=O)c1ccc(Cc2c(-c3cccc(C(O)(C4CC4)C(F)(F)F)c3)nn(-c3nc(C(=O)O)cs3)c2CC2CC2)cc1F (stereo not drawn) [Compound 398]
- IC50 (MiaPaCa2 cells): 10000 to 57000 nM
- IC50 (Human LDHA): < 100 nM

SMILES: N[S+](=O)([O-])c1ccc(Cc2c(CC3CC3)nn(-c3nc(C(=O)O)cs3)c2-c2ccc(C(O)(C3CC3)C(F)(F)F)cc2)cc1F (stereo not drawn) [Compound 399]
- IC50 (MiaPaCa2 cells; Homo sapiens, MIA PaCa-2): > 57000 nM
- IC50 (Human LDHA): 1000 to 57000 nM

SMILES: NS(=O)(=O)c1ccc(Cc2c(-c3ccc(F)c(OCC4CC4(F)F)c3)nn(-c3nc(C(=O)O)cs3)c2CC2CC2)cc1F (stereo not drawn) [Compound 400]
- IC50 (MiaPaCa2 cells): < 1000 nM
- IC50 (Human LDHA): < 100 nM

SMILES: CC(C)(C)C#Cc1cc(-c2nn(-c3nc(C(=O)O)cs3)c(CC3CC3)c2Cc2ccc(S(N)(=O)=O)c(F)c2)ccc1F [Compound 402]
- IC50 (MiaPaCa2 cells): < 1000 nM
- IC50 (Human LDHA): < 100 nM

SMILES: NS(=O)(=O)c1ccc(Cc2c(-c3ccc(F)c(C#Cc4cccs4)c3)nn(-c3nc(C(=O)O)cs3)c2CC2CC2)cc1F [Compound 403]
- IC50 (MiaPaCa2 cells): < 1000 nM
- IC50 (Human LDHA): < 100 nM

SMILES: COCC#Cc1cc(-c2nn(-c3nc(C(=O)O)cs3)c(CC3CC3)c2Cc2ccc([S+](N)(=O)[O-])c(F)c2)ccc1F [Compound 404]
- IC50 (MiaPaCa2 cells; Homo sapiens, MIA PaCa-2): < 1000 nM
- IC50 (Human LDHA): < 100 nM

SMILES: Cn1cncc1C#Cc1cc(-c2nn(-c3nc(C(=O)O)cs3)c(CC3CC3)c2Cc2ccc(S(N)(=O)=O)c(F)c2)ccc1F [Compound 405]
- IC50 (MiaPaCa2 cells): < 1000 nM
- IC50 (Human LDHA): < 100 nM

SMILES: NS(=O)(=O)c1ccc(Cc2c(-c3ccc(F)c(C4CC4)c3)nn(-c3nc(C(=O)O)cs3)c2CC2CC2)cc1Cl [Compound 406]
- IC50 (MiaPaCa2 cells): 1000 to 10000 nM
- IC50 (Human LDHA): < 100 nM

SMILES: Cc1ccc(-c2cc(-c3nn(-c4nc(C(=O)O)cs4)c(CC4CC4)c3Cc3ccc(S(N)(=O)=O)c(Cl)c3)ccc2F)s1 [Compound 407]
- IC50 (MiaPaCa2 cells): < 1000 nM
- IC50 (Human LDHA): < 100 nM

SMILES: Cc1ccc(C#Cc2cc(-c3nn(-c4nc(C(=O)O)cs4)c(CC4CC4)c3Cc3ccc(S(N)(=O)=O)c(F)c3)ccc2F)s1 [Compound 408]
- IC50 (MiaPaCa2 cells): < 1000 nM
- IC50 (Human LDHA): < 100 nM

SMILES: N[S+](=O)([O-])c1ccc(Cc2c(-c3ccc(F)c(C#CCCO)c3)nn(-c3nc(C(=O)O)cs3)c2CC2CC2)cc1F [Compound 409]
- IC50 (MiaPaCa2 cells; Homo sapiens, MIA PaCa-2): 1000 to 10000 nM
- IC50 (Human LDHA): < 100 nM

SMILES: C#Cc1cc(-c2nn(-c3nc(C(=O)O)cs3)c(CC3CC3)c2Cc2ccc(S(N)(=O)=O)c(F)c2)ccc1F [Compound 410]
- IC50 (MiaPaCa2 cells): < 1000 nM
- IC50 (Human LDHA): < 100 nM

SMILES: N[S+](=O)([O-])c1ccc(Cc2c(-c3ccc(F)c(C#CCC4CCCC4)c3)nn(-c3nc(C(=O)O)cs3)c2CC2CC2)cc1F [Compound 411]
- IC50 (MiaPaCa2 cells): < 1000 nM
- IC50 (Human LDHA): < 100 nM

SMILES: NS(=O)(=O)c1ccc(Cc2c(-c3ccc(F)c(C#CC4(O)CCCC4)c3)nn(-c3nc(C(=O)O)cs3)c2CC2CC2)cc1F [Compound 412]
- IC50 (MiaPaCa2 cells): 1000 to 10000 nM
- IC50 (Human LDHA): < 100 nM

SMILES: NS(=O)(=O)c1ccc(Cc2c(-c3ccc(F)c(C#CC4(F)COC4)c3)nn(-c3nc(C(=O)O)cs3)c2CC2CC2)cc1F [Compound 414]
- IC50 (MiaPaCa2 cells): 1000 to 10000 nM
- IC50 (Human LDHA): < 100 nM

SMILES: NS(=O)(=O)c1ccc(Cc2c(-c3ccc(F)c(C#CC4(O)COC4)c3)nn(-c3nc(C(=O)O)cs3)c2CC2CC2)cc1F [Compound 415]
- IC50 (MiaPaCa2 cells): 1000 to 10000 nM
- IC50 (Human LDHA): < 100 nM

SMILES: CC1(C#Cc2cc(-c3nn(-c4nc(C(=O)O)cs4)c(CC4CC4)c3Cc3ccc(S(N)(=O)=O)c(F)c3)ccc2F)COC1 [Compound 416]
- IC50 (MiaPaCa2 cells): 1000 to 10000 nM
- IC50 (Human LDHA): < 100 nM

SMILES: N[S+](=O)([O-])c1ccc(Cc2c(-c3ccc(F)c(C#CCN4CCCC4)c3)nn(-c3nc(C(=O)O)cs3)c2CC2CC2)cc1F [Compound 417]
- IC50 (MiaPaCa2 cells): 1000 to 10000 nM
- IC50 (Human LDHA): < 100 nM
